Test results from patent US8563714B2, “Bridged spiro [2.4] heptane derivatives as ALX receptor and/or FPRL2 agonists” (Actelion Pharmaceuticals Ltd., priority 2009, dated 2013).

Columns and labels:
human ALX receptor = target: T1, human ALX receptor (Homo sapiens, UniProt P25090); assay: Intracellular calcium measurements (FLIPR), agonistic activity in HEK293-hALXR-Gα16 cells; format: cell-based; details: Fluo-4 calcium FLIPR, normalized to WKYMVm 10 nM
T1 construct: expressed in transfected cells; host or cells: HEK293 (HEK293-hALXR-Gα16)
T1 sequence (P25090 1-351): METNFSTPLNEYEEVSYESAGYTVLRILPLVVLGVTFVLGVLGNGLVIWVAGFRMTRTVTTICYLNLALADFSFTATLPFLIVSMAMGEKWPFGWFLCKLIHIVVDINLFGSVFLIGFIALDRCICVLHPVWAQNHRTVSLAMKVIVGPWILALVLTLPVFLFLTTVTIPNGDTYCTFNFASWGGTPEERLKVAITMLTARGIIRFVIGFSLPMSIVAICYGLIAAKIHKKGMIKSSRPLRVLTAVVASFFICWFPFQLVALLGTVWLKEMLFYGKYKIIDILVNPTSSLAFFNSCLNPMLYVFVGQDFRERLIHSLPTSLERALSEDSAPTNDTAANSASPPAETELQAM
In short: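 Agonist-induced calcium flux was recorded by FLIPR (488/540 nm) in HEK293-hALXR-Gα16 cells pre-loaded with Fluo-4 AM (1 μM, 60 min, 37°C). Peak signal above baseline, after subtracting buffer addition, was expressed relative to WKYMVm at 10 nM final.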

human FPRL2 = target: T2, human FPRL2 (Homo sapiens, UniProt P25089); assay: Intracellular calcium measurements (FLIPR), agonistic activity in HEK293-hFPRL2-Gα16 cells; format: cell-based; details: Fluo-4 calcium FLIPR, normalized to GLY14-Humanin 100 nM
T2 construct: expressed in transfected cells; host or cells: HEK293 (HEK293-hFPRL2-Gα16)
T2 sequence (P25089 1-353): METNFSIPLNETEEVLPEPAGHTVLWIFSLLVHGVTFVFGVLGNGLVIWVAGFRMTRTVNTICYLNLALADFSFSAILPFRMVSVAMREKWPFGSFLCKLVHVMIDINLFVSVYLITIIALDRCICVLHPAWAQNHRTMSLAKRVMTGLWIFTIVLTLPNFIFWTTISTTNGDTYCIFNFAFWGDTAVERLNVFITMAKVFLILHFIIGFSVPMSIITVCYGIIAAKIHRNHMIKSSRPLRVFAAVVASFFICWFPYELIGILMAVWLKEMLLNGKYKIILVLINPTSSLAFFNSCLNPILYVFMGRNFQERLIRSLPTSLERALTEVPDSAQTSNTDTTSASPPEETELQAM
In short: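 Peak values after baseline subtraction are expressed relative to 100 nM Gly14-Humanin; compounds diluted in assay buffer from 10 mM DMSO stocks.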

Row | Compound | EC50 (human ALX receptor) | EC50 (human FPRL2)
1 | Cc1ccc(CNC(=O)[C@H]2[C@H](C(=O)NCCCCN3CCCC3)[C@H]3C=C[C@@H]2C32CC2)c(C)c1 (racemic) [Example 347, (5R*)—N^5-(2,4-Dimethylphenyl-methyl)-(6R*)—N^6-(4-pyrrolidino-butyl)-(4S*,7R*)-[4,7-ethenylene-spiro[2.4]heptane]-5,6-dicarboxamide] | 1800 nM | 417 nM
2 | CC(=O)c1nc(CNC(=O)[C@H]2[C@H](C(=O)NCCCCN3CCCC3)[C@H]3C=C[C@@H]2C32CC2)cs1 (racemic) [Example 348, (5R*)—N^5-[(2-Acetyl-thiazol-4-yl)methyl]-(6R*)—N^6-(4-pyrrolidino-butyl)-(4S*,7R*)-[4,7-ethenylene-spiro[2.4]heptane]-5,6-dicarboxamide] | 3230 nM | 219 nM
3 | O=C(NCCCCN1CCCC1)[C@H]1[C@H](C(=O)NCc2cccc(Cl)c2F)[C@@H]2C=C[C@H]1C21CC1 (racemic) [Example 349, (5R*)—N^5-(3-Chloro-2-fluorophenyl-methyl)-(6R*)—N^6-(4-pyrrolidino-butyl)-(4S*,7R*)-[4,7-ethenylene-spiro[2.4]heptane]-5,6-dicarboxamide] | 4720 nM | 200 nM
4 | Cc1coc(NC(=O)[C@H]2[C@H](C(=O)NCCCCN3CCCC3)[C@H]3C=C[C@@H]2C32CC2)n1 (racemic) [Example 350, (5R*)—N^5-(4-Methyl-oxazol-2-yl)-(6R*)—N^6-(4-pyrrolidino-butyl)-(4S*,7R*)-[4,7-ethenylene-spiro[2.4]heptane]-5,6-dicarboxamide] | 5730 nM | 444 nM
5 | CC(=O)c1cnc(CNC(=O)[C@H]2[C@H](C(=O)NCCCCN3CCCC3)[C@H]3C=C[C@@H]2C32CC2)s1 (racemic) [Example 351, (5R*)—N^5-[(5-Acetyl-thiazol-2-yl)methyl]-(6R*)—N^6-(4-pyrrolidino-butyl)-(4S*,7R*)-[4,7-ethenylene-spiro[2.4]heptane]-5,6-dicarboxamide] | 6330 nM | 94 nM
6 | CC(=O)c1cccc(NC(=O)[C@H]2[C@H](C(=O)NCCCCN3CCCC3)[C@H]3C=C[C@@H]2C32CC2)c1 (racemic) [Example 352, (5R*)—N^5-(3-Acetylphenyl)-(6R*)—N^6-(4-pyrrolidino-butyl)-(4S*,7R*)-[4,7-ethenylene-spiro[2.4]heptane]-5,6-dicarboxamide] | 6700 nM | 958 nM
7 | O=C(NCCCCN1CCCC1)[C@H]1[C@H](C(=O)NCc2ccc(F)cc2Br)[C@@H]2C=C[C@H]1C21CC1 (racemic) [Example 353, (5R*)—N^5-(2-Bromo-4-fluorophenyl-methyl)-(6R*)—N^6-(4-pyrrolidino-butyl)-(4S*,7R*)-[4,7-ethenylene-spiro[2.4]heptane]-5,6-dicarboxamide] | 6900 nM | 256 nM
8 | O=C(NCCCCN1CCCC1)[C@H]1[C@H](C(=O)NCc2ccc(F)c(Br)c2)[C@@H]2C=C[C@H]1C21CC1 (racemic) [Example 354, (5R*)—N^5-(3-Bromo-4-fluorophenyl-methyl)-(6R*)—N^6-(4-pyrrolidino-butyl)-(4S*,7R*)-[4,7-ethenylene-spiro[2.4]heptane]-5,6-dicarboxamide] | 7410 nM | 223 nM
9 | O=C(NCCCCN1CCCC1)[C@H]1[C@H](C(=O)NCc2cc(F)cc(F)c2F)[C@@H]2C=C[C@H]1C21CC1 (racemic) [Example 355, (5R*)—N^5-(2,3,5-Trifluorophenyl-methyl)-(6R*)—N^6-(4-pyrrolidino-butyl)-(4S*,7R*)-[4,7-ethenylene-spiro[2.4]heptane]-5,6-dicarboxamide] | 7500 nM | 477 nM
10 | Cc1nonc1CNC(=O)[C@H]1[C@H](C(=O)NCCCCN2CCCC2)[C@H]2C=C[C@@H]1C21CC1 (racemic) [Example 356, (5R*)—N^5-[(4-Methyl-1,2,5-oxadiazol-3-yl)methyl]-(6R*)—N^6-(4-pyrrolidino-butyl)-(4S*,7R*)-[4,7-ethenylene-spiro[2.4]heptane]-5,6-dicarboxamide] | 7710 nM | 948 nM
11 | O=C(NCCCCN1CCCC1)[C@H]1[C@H](C(=O)NCc2cccc(C(F)(F)F)c2F)[C@@H]2C=C[C@H]1C21CC1 (racemic) [Example 357, (5R*)—N^5-(2-Fluoro-3-trifluoromethylphenyl-methyl)-(6R*)—N^6-(4-pyrrolidino-butyl)-(4S*,7R*)-[4,7-ethenylene-spiro[2.4]heptane]-5,6-dicarboxamide] | 7910 nM | 290 nM

More lines, now with the values ahead:

Row | EC50 (human ALX receptor) | EC50 (human FPRL2) | Compound
12 | 7980 nM | 176 nM | Cc1cc(C)cc(CNC(=O)[C@H]2[C@H](C(=O)NCCCCN3CCCC3)[C@H]3C=C[C@@H]2C32CC2)c1 (racemic) [Example 358, (5R*)—N^5-(3,5-Dimethylphenyl-methyl)-(6R*)—N^6-(4-pyrrolidino-butyl)-(4S*,7R*)-[4,7-ethenylene-spiro[2.4]heptane]-5,6-dicarboxamide]
13 | 8350 nM | 359 nM | CC(=O)c1cccc(CNC(=O)[C@H]2[C@H](C(=O)NCCCCN3CCCC3)[C@H]3C=C[C@@H]2C32CC2)c1 (racemic) [Example 359, (5R*)—N^5-(3-Acetylphenyl-methyl)-(6R*)—N^6-(4-pyrrolidino-butyl)-(4S*,7R*)-[4,7-ethenylene-spiro[2.4]heptane]-5,6-dicarboxamide]
14 | 8700 nM | 530 nM | O=C(NCCCCN1CCCC1)[C@H]1[C@H](C(=O)NCc2cccc(OC(F)F)c2)[C@@H]2C=C[C@H]1C21CC1 (racemic) [Example 360, (5R*)—N^5-(3-Difluoromethoxyphenyl-methyl)-(6R*)—N^6-(4-pyrrolidino-butyl)-(4S*,7R*)-[4,7-ethenylene-spiro[2.4]heptane]-5,6-dicarboxamide]
15 | 8870 nM | 330 nM | COc1cc(CNC(=O)[C@H]2[C@H](C(=O)NCCCCN3CCCC3)[C@H]3C=C[C@@H]2C32CC2)ccn1 (racemic) [Example 361, (5R*)—N^5-[(2-Methoxypyridin-4-yl)methyl]-(6R*)—N^6-(4-pyrrolidino-butyl)-(4S*,7R*)-[4,7-ethenylene-spiro[2.4]heptane]-5,6-dicarboxamide]
16 | 9090 nM | 306 nM | O=C(NCCCCN1CCCC1)[C@H]1[C@H](C(=O)NCc2cc(F)cc(C(F)(F)F)c2)[C@@H]2C=C[C@H]1C21CC1 (racemic) [Example 362, (5R*)—N^5-(3-Fluoro-5-trifluoromethylphenyl-methyl)-(6R*)—N^6-(4-pyrrolidino-butyl)-(4S*,7R*)-[4,7-ethenylene-spiro[2.4]heptane]-5,6-dicarboxamide]
17 | 9740 nM | 570 nM | CC(=O)c1ccc(CNC(=O)[C@H]2[C@H](C(=O)NCCCCN3CCCC3)[C@H]3C=C[C@@H]2C32CC2)cc1 (racemic) [Example 363, (5R*)—N^5-(4-Acetylphenyl-methyl)-(6R*)—N^6-(4-pyrrolidino-butyl)-(4S*,7R*)-[4,7-ethenylene-spiro[2.4]heptane]-5,6-dicarboxamide]
18 | 9970 nM | 372 nM | O=C(NCCCCN1CCCC1)[C@H]1[C@H](C(=O)NCc2cc(C(F)(F)F)ccc2Cl)[C@@H]2C=C[C@H]1C21CC1 (racemic) [Example 364, (5R*)—N^5-(2-Chloro-5-trifluoromethylphenyl-methyl)-(6R*)—N^6-(4-pyrrolidino-butyl)-(4S*,7R*)-[4,7-ethenylene-spiro[2.4]heptane]-5,6-dicarboxamide]
19 | 9970 nM | 350 nM | O=C(NCCCCN1CCCC1)[C@H]1[C@H](C(=O)NCc2cc(C(F)(F)F)ccc2F)[C@@H]2C=C[C@H]1C21CC1 (racemic) [Example 365, (5R*)—N^5-(2-Fluoro-5-trifluoromethylphenyl-methyl)-(6R*)—N^6-(4-pyrrolidino-butyl)-(4S*,7R*)-[4,7-ethenylene-spiro[2.4]heptane]-5,6-dicarboxamide]
20 | 10000 nM | 366 nM | O=C(NCCCCN1CCCC1)[C@H]1[C@H](C(=O)NCc2ccc(F)c(C(F)(F)F)c2)[C@@H]2C=C[C@H]1C21CC1 (racemic) [Example 366, (5R*)—N^5-(4-Fluoro-3-trifluoromethylphenyl-methyl)-(6R*)—N^6-(4-pyrrolidino-butyl)-(4S*,7R*)-[4,7-ethenylene-spiro[2.4]heptane]-5,6-dicarboxamide]
